Columns and labels:
Format in all cases: cell-based
CCRF-CEM = test: Cytotoxicity against human CCRF-CEM cells assessed as effect on cell growth at 10 uM incubated for 48 hrs by sulforhodamine B assay
RPMI-8226 = test: Cytotoxicity against human RPMI8226 cells assessed as effect on cell growth at 10 uM incubated for 48 hrs by sulforhodamine B assay; details: rpmi-8226, 48 h
HL-60(TB) = test: Cytotoxicity against human HL-60(TB) cells assessed as effect on cell growth at 10 uM incubated for 48 hrs by sulforhodamine B assay
NCI-H460 = test: Cytotoxicity against human NCI-H460 cells assessed as effect on cell growth at 10 uM incubated for 48 hrs by sulforhodamine B assay; details: nci-h460, 48 h
HCT-116 = test: Cytotoxicity against human HCT116 cells assessed as effect on cell growth at 10 uM incubated for 48 hrs by sulforhodamine B assay; details: hct-116, 48 h
KM12 = test: Cytotoxicity against human KM12 cells assessed as effect on cell growth at 10 uM incubated for 48 hrs by sulforhodamine B assay; details: km12, 48 h
SF-295 = test: Cytotoxicity against human SF295 cells assessed as effect on cell growth at 10 uM incubated for 48 hrs by sulforhodamine B assay; details: sf-295, 48 h
SNB-75 = test: Cytotoxicity against human SNB75 cells assessed as effect on cell growth at 10 uM incubated for 48 hrs by sulforhodamine B assay; details: snb-75, 48 h
U-251 = test: Cytotoxicity against human U251 cells assessed as effect on cell growth at 10 uM incubated for 48 hrs by sulforhodamine B assay; details: u-251, 48 h
LOX IMVI = test: Cytotoxicity against human LOXIMVI cells assessed as effect on cell growth at 10 uM incubated for 48 hrs by sulforhodamine B assay
Malme-3M = test: Cytotoxicity against human MALME-3M cells assessed as effect on cell growth at 10 uM incubated for 48 hrs by sulforhodamine B assay
UACC-257 = test: Cytotoxicity against human UACC257 cells assessed as effect on cell growth at 10 uM incubated for 48 hrs by sulforhodamine B assay; details: uacc-257, 48 h
IGROV-1 = test: Cytotoxicity against human IGROV1 cells assessed as effect on cell growth at 10 uM incubated for 48 hrs by sulforhodamine B assay; details: igrov-1, 48 h
OVCAR-3 = test: Cytotoxicity against human OVCAR3 cells assessed as effect on cell growth at 10 uM incubated for 48 hrs by sulforhodamine B assay; details: ovcar-3, 48 h
OVCAR-4 = test: Cytotoxicity against human OVCAR4 cells assessed as effect on cell growth at 10 uM incubated for 48 hrs by sulforhodamine B assay; details: ovcar-4, 48 h
NCI/ADR-RES = test: Cytotoxicity against human NCI/ADR-RES cells assessed as effect on cell growth at 10 uM incubated for 48 hrs by sulforhodamine B assay
ACHN = test: Cytotoxicity against human ACHN cells assessed as effect on cell growth at 10 uM incubated for 48 hrs by sulforhodamine B assay
PC-3 = test: Cytotoxicity against human PC3 cells assessed as effect on cell growth at 10 uM incubated for 48 hrs by sulforhodamine B assay; details: pc-3, 48 h
T47D = test: Cytotoxicity against human T47D cells assessed as effect on cell growth at 10 uM incubated for 48 hrs by sulforhodamine B assay
MDA-MB-468 = test: Cytotoxicity against human MDA-MB-468 cells assessed as effect on cell growth at 10 uM incubated for 48 hrs by sulforhodamine B assay; details: mda-mb-468, 48 h

Measured: Activity

N#Cc1ccc(N2C(=O)CC[C@H]2C(=O)NCc2ccc(Cl)cc2Cl)cc1
Non-Toxic: CCRF-CEM | RPMI-8226 | HL-60(TB) | NCI-H460 | HCT-116 | KM12 | SF-295 | SNB-75 | U-251 | LOX IMVI | Malme-3M | UACC-257 | IGROV-1 | OVCAR-3 | OVCAR-4 | NCI/ADR-RES | ACHN | PC-3 | T47D | MDA-MB-468

CN(Cc1ccccc1)C(=O)[C@@H]1CCC(=O)N1Cc1ccc(Cl)cc1Cl
Non-Toxic: CCRF-CEM | RPMI-8226 | HL-60(TB) | NCI-H460 | HCT-116 | KM12 | SF-295 | SNB-75 | U-251 | LOX IMVI | Malme-3M | UACC-257 | IGROV-1 | OVCAR-3 | OVCAR-4 | NCI/ADR-RES | ACHN | PC-3 | T47D | MDA-MB-468

CCCCCCN1C(=O)[C@@H]2CCC(=O)N2C1N(C)C (stereo not given in full)
Non-Toxic: CCRF-CEM | RPMI-8226 | HL-60(TB) | NCI-H460 | HCT-116 | KM12 | SF-295 | SNB-75 | U-251 | LOX IMVI | Malme-3M | UACC-257 | IGROV-1 | OVCAR-3 | OVCAR-4 | NCI/ADR-RES | ACHN | PC-3 | T47D | MDA-MB-468

O=C(NCCc1ccccc1)[C@@H]1CCC(=O)N1Cc1ccc(Br)cc1
Non-Toxic: CCRF-CEM | RPMI-8226 | HL-60(TB) | NCI-H460 | HCT-116 | KM12 | SF-295 | SNB-75 | U-251 | LOX IMVI | Malme-3M | UACC-257 | IGROV-1 | OVCAR-3 | OVCAR-4 | NCI/ADR-RES | ACHN | PC-3 | T47D | MDA-MB-468

O=C(NCc1ccc(Cl)cc1Cl)[C@@H]1CCC(=O)N1Cc1ccccc1
Non-Toxic: CCRF-CEM | RPMI-8226 | HL-60(TB) | NCI-H460 | HCT-116 | KM12 | SF-295 | SNB-75 | U-251 | LOX IMVI | Malme-3M | UACC-257 | IGROV-1 | OVCAR-3 | OVCAR-4 | NCI/ADR-RES | ACHN | PC-3 | T47D | MDA-MB-468

O=C(NCCc1ccc(Cl)cc1Cl)[C@@H]1CCC(=O)N1c1ccccc1
Non-Toxic: CCRF-CEM | RPMI-8226 | HL-60(TB) | NCI-H460 | HCT-116 | KM12 | SF-295 | SNB-75 | U-251 | LOX IMVI | Malme-3M | UACC-257 | IGROV-1 | OVCAR-3 | OVCAR-4 | NCI/ADR-RES | ACHN | PC-3 | T47D | MDA-MB-468

O=C(NCc1ccc(Cl)cc1Cl)[C@@H]1CCC(=O)N1c1cncs1
Non-Toxic: CCRF-CEM | RPMI-8226 | HL-60(TB) | NCI-H460 | HCT-116 | KM12 | SF-295 | SNB-75 | U-251 | LOX IMVI | Malme-3M | UACC-257 | IGROV-1 | OVCAR-3 | OVCAR-4 | NCI/ADR-RES | ACHN | PC-3 | T47D | MDA-MB-468

COc1cc(CN/C=C2\C[C@@H](C(=O)NCc3ccc(Cl)cc3Cl)NC2=O)cc(OC)c1OC
Non-Toxic: CCRF-CEM | RPMI-8226 | HL-60(TB) | NCI-H460 | HCT-116 | KM12 | SF-295 | SNB-75 | U-251 | LOX IMVI | Malme-3M | UACC-257 | IGROV-1 | OVCAR-3 | OVCAR-4 | NCI/ADR-RES | ACHN | PC-3 | T47D | MDA-MB-468

From ChEMBL document CHEMBL4627246, “Pyroglutamide-Based P2X7 Receptor Antagonists Targeting Inflammatory Bowel Disease” (J Med Chem, 2020)
